Measurements published in patent publication US20080146457A1, “METHOD FOR THE DETERMINATION OF CELL ACTIVATION” (priority 2003, published 2008).

What was measured:
Format in all cases: cell-based
Erk1/2 = assay: Phosphorylation status of Erk1/2 in PMA-treated Jurkat cells on double antibody array; settings: PMA 0.1 to 1000 ng/ml, 10 minutes
p38 = assay: Level of phosphorylation of p38 in anisomycin-treated Jurkat cells on multiplex arrays
Protocol: (§1) Hybridization chambers were placed onto diaglass functionalized slides (EAT, Namur, Belgium) spotted with antibodies specific of the protein to be detected, in this case anti-Akt antibodies. The spotting was performed with a split pin or a pin and ring or a plain pin. Each spot contained between 0.5 and 10 nl depending on the type of pin used and its diameter.
(§2) The slides were washed 4×1 min in Washing Buffer (EAT, Namur, Belgium). The slides were then incubated for 1 h with 500 μl of a specific rabbit detection antibody against phospho-Akt diluted 500× in Blocking Buffer (EAT, Namur, Belgium). The slides were washed 4×1 min in Washing Buffer. The slides were then incubated for 45 min at room temperature with a conjugated antibody (anti-rabbit Cy3) diluted 1000× in Blocking Buffer. The slides were washed 4×1 min in Washing Buffer and then rinsed twice in water. The slides were scanned in a laser confocal scanner “ScanArray” (Packard, USA) at a resolution of 10 μm.
(§3) The assay was performed as described in Example 1, but two identical arrays were present on each slide. The capture antibodies spotted on the left and right arrays were the same, but the detection antibodies were either specific to the phospho-Akt (right arrays) or to the total Akt (left arrays). Four different mixes were prepared as follows: (1) 40 ng of purified Akt and 40 ng of purified phospho Akt; (2) 40 ng of purified Akt and 20 ng of purified phospho Akt; (3) 40 ng of purified Akt and 10 ng of purified phospho Akt; (4) 40 ng of purified Akt and 5 ng of purified phospho Akt. In this experiment, four slides were used. […] The intensity of the spots on each array was then quantified and the results clearly show decreasing signal intensities correlating with decreasing concentrations of phospho-Akt on the right arrays. The calculated ratios of phospho vs. total Akt directly relates to the known concentration used in the four different mixes.
(§4) Each slide contained 2 identical arrays. The two arrays were incubated with the same samples possibly containing the proteins to be detected. The left array was then incubated with a mixture of 7 detection antibodies directed against the 7 proteins to be detected. The right array was incubated with a mixture of 7 detection antibodies directed against the phospho-specific form of the 7 proteins to be detected. […] The samples consisted of each of the 7 proteins to be detected, in their non-phosphorylated or phosphorylated form, or combinations thereof.
(§5) The experiment was performed on slides containing a double array as presented in Example 4. […] The protein chips allowed to simultaneously quantify the level of phosphorylation of p38 and JNK1/2 due to the effect of anisomycin on cells.

JNK1/2 = assay: Level of phosphorylation of JNK1/2 in anisomycin-treated Jurkat cells on multiplex arrays
Protocol: as §1, §2, §3, §4, §5

[1] = 8 different concentrations of anisomycin

| SMILES | amount of Erk1/2 (total protein) (Erk1/2) | levels of phosphorylation at threonine 185 and tyrosine 187 of Erk1/2 (Erk1/2) | level of phospho form of p38 (p38; [1]) | level of total p38 (p38; [1]) | ratio of Phospho vs. total forms of p38 (p38; anisomycin 1 μM) | ratio of Phospho vs. total forms of p38 (p38; anisomycin 100 μM) | level of phospho form of JNK1/2 (JNK1/2; [1]) | level of total JNK1/2 (JNK1/2; [1]) | ratio of Phospho vs. total forms of JNK1/2 (JNK1/2; anisomycin 0.01 μM) | ratio of Phospho vs. total forms of JNK1/2 (JNK1/2; anisomycin 1 μM) |
| --- | --- | --- | --- | --- | --- | --- | --- | --- | --- | --- |
| CCCCCCCCCCCCCC(=O)O[C@@H]1[C@@H](C)[C@@]2(O)[C@@H](C=C(CO)C[C@]3(O)C(=O)C(C)=C[C@@H]23)[C@@H]2C(C)(C)[C@]12OC(C)=O [PMA, phorbol 12-myristate 13-acetate] | remains constant | increase with the amount of PMA |  |  |  |  |  |  |  |  |
| COc1ccc(C[C@H]2NC[C@H](O)[C@H]2OC(C)=O)cc1 [anisomycin] |  |  | increase with the anisomycin concentration | remain constant | 0.33 | 1.0 | increase with the anisomycin concentration | remain constant | 0.33 | 0.88 |
